Like-named read-outs stand apart in the source and are kept apart here.
What was measured:
Assay type in all cases: biochemical
[1] = target: T1, AChE from Danio rerio (DrAChE) (Danio rerio, UniProt Q9DDE3); test: Ellman cholinesterase assay, zebrafish brain homogenate AChE
T1 construct: zebrafish brains were homogenized on ice in 60 volumes (v/w) of Tris-citrate buffer; from tissue; host or cells: zebrafish brain homogenate
Experimental: (§1) The compounds selected as inhibitors of AChE activity were obtained commercially from MolPort (http://www.molport.com/buy-chemicals/index). They were dissolved in dimethyl sulfoxide (DMSO), at a final concentration of 0.1%.
(§2) The cholinesterase activities were measured based on Ellman et al.'s method. The increase of absorbance was monitored at 412 nm in a reaction mixture containing 10 mM potassium phosphate buffer, pH 7.4, and 1 mM DTNB [5,5′-dithiobis-(2-nitrobenzoic) acid] (from Sigma) in the presence of one of the following enzymes: purified AChE from Electrophorus electricus (EeAChE)—0.05 U/ml, AChE from human erythrocytes (HsAChE), AChE from Danio rerio (DrAChE)—0.5 μg, and purified BChE from Equus ferus (EfBChE)—0.05 U/mL. The compounds (or only 0.1% DMSO for the control group) were preincubated with the enzyme during 10 minutes at room temperature, and the reaction was started with the addition of acetylthiocholine or butyrylthiocholine (0.8 mM).
The DrAChE assay was performed as previously described by Rosemberg et al. (2010). Briefly, zebrafish brains were homogenized on ice in 60 volumes (v/w) of Tris-citrate buffer (50 mM Tris, 2 mM EDTA, 2 mM EGTA, and pH 7.4, with citric acid) using a Potter-Elvehjem-type glass homogenizer. Samples (0.5 μg protein) were preincubated for 10 min at 25°C and the enzyme activity was further assessed in the absence and the presence of the selected compounds.
(§3) The IC50 values were determined by nonlinear regression (log concentration-inhibition curves). Data were analyzed by one-way analysis of variance (ANOVA) followed by Student-Newman-Keuls test. Statistical significance was set at P < 0.05. The statistics have been performed using GraphPad Prism 5 (version 5.01, GraphPad Software, Inc., USA).

[2] = target: T2, AChE from human erythrocytes (HsAChE) (Homo sapiens, UniProt P22303); test: Ellman cholinesterase assay, human erythrocyte ghost AChE
T2 construct: from tissue; host or cells: human erythrocyte ghosts from blood of healthy donors
T2 sequence (P22303 other isoform, or with tags, fused parts or gaps): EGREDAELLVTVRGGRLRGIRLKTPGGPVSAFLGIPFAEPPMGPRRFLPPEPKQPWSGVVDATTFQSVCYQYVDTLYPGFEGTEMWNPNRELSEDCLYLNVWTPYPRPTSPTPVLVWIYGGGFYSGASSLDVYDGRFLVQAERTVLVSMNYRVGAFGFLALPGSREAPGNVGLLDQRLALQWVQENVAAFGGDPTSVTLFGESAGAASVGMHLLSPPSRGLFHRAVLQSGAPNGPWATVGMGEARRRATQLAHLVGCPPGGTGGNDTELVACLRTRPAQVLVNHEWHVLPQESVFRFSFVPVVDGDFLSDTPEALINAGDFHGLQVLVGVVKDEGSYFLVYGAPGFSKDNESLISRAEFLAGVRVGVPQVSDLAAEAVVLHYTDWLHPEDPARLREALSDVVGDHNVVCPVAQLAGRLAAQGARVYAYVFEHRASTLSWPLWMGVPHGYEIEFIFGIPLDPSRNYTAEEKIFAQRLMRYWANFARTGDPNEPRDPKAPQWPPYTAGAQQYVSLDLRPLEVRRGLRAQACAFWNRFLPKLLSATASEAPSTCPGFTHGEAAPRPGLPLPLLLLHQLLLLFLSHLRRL
Experimental: as §1, §2
Haemoglobin-free erythrocyte ghosts were prepared according to the method previously described. Blood of nonfasted healthy voluntary donors was collected. Heparinized human blood was centrifuged at 3000 g for 10 min. The packed erythrocytes were diluted in 20 volumes (w/v) of hypotonic sodium/potassium phosphate buffer (6.7 mM, pH 7.4) to facilitate the hemolysis, followed by centrifugation at 30.000 g for 30 min at 4°C. The supernatant was removed and the pellet resuspended in hypotonic phosphate buffer. After two additional washing cycles, the pellet was resuspended in sodium/potassium phosphate buffer (0.1 M, pH 7.4) and then centrifuged again at 30.000 g for 30 min at 4°C. The supernatant was gently removed and the pellet was stored. Aliquots of the erythrocyte ghosts were stored at −20°C until usage within one week. The sample was diluted 10 times for AChE activity measurement. Fifty μL of the stored ghost preparation, in a final volume of 200 μL, was used for the assay. Hemoglobin content from ghost membranes was measured at 540 nm as the cyano-met-Hb form, but no hemoglobin was detected.
as §3

[3] = target: AChE from Electrophorus electricus (EeAChE) (Electrophorus electricus, UniProt O42275); test: Ellman cholinesterase assay, purified AChE from Electrophorus electricus
AChE from Electrophorus electricus (EeAChE), sequence (O42275 24-633): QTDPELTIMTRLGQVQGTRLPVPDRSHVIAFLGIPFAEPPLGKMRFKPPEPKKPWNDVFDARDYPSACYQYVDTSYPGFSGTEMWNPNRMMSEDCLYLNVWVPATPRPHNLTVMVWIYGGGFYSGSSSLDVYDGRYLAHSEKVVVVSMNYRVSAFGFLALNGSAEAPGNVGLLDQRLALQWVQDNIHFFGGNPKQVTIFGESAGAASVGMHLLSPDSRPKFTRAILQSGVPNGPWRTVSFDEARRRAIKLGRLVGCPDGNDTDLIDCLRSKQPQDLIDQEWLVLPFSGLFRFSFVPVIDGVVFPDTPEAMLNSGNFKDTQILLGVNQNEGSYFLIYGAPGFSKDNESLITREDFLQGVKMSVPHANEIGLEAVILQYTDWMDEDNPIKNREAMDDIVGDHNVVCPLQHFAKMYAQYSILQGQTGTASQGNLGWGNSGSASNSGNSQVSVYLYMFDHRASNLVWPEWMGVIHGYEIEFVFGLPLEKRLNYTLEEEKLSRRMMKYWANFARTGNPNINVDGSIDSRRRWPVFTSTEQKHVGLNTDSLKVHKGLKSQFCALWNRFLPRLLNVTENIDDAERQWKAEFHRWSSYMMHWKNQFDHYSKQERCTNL
Experimental: as §1, §2, §3

[4] = target: BChE from Equus ferus (EfBChE) (Equus caballus, UniProt P81908); test: Ellman cholinesterase assay, purified BChE from Equus ferus
BChE from Equus ferus (EfBChE), sequence (P81908 whole entry): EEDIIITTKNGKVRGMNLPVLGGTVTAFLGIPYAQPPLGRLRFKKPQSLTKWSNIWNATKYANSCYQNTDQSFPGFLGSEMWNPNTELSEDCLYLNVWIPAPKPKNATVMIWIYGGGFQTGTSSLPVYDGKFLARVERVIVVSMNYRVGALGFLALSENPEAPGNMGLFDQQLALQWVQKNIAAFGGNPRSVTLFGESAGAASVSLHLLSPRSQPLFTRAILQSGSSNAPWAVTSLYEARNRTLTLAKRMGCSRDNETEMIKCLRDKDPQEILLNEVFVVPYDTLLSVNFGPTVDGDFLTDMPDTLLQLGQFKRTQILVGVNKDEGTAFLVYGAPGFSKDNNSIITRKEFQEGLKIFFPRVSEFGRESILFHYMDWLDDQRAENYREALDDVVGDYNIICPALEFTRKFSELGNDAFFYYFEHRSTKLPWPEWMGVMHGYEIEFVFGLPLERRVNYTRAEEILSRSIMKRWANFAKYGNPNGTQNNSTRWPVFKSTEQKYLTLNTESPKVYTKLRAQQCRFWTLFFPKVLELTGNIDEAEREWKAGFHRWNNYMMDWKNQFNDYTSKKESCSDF
Experimental: as §1, §2, §3

[5] = zebrafish brain homogenate 0.5 μg protein, 10 min preincubation, read-out: IC50 DrAChE
[6] = human erythrocyte ghosts, 10 min preincubation, read-out: IC50 HsAChE
[7] = purified EeAChE 0.05 U/ml, 10 min preincubation, acetylthiocholine 0.8 mM, read-out: IC50 EeAChE
[8] = purified BChE 0.05 U/mL, 10 min preincubation, butyrylthiocholine 0.8 mM, read-out: IC50 EcBChE

T1 sequence (Q9DDE3 24-634): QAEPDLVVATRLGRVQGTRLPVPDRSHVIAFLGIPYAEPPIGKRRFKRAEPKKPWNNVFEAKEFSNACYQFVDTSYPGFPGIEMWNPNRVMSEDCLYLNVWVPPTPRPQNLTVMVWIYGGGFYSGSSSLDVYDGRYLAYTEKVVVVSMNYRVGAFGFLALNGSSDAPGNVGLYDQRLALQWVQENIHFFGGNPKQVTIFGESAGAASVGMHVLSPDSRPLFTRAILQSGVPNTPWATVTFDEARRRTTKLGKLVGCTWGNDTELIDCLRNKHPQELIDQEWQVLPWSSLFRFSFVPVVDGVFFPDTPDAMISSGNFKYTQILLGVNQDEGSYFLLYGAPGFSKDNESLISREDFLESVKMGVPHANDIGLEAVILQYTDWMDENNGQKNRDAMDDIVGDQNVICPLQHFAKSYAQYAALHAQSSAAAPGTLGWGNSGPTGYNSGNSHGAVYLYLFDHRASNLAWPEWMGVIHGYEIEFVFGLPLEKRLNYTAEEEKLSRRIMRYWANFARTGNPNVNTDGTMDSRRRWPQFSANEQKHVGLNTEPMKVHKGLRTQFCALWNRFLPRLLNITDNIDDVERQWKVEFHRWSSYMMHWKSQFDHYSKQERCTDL

Row | SMILES | IC50 [1] [µM] | IC50 [2] [µM] | IC50 [3] [µM] | IC50 [4] [µM] | IC50 [1, 5] [µM] | IC50 [2, 6] [µM] | IC50 [3, 7] [µM] | IC50 [4, 8] [µM]
1 | O=c1ccc2ccc(OCC[N+]34CCC(CC3)C(C(O)(c3ccccc3)c3ccccc3)C4)cc2o1 (stereo not shown) [A] | 26.2 ± 3.98 | 13.2 ± 1.38 | 36.3 ± 3.14 | 22.2 ± 1.06 |  |  |  | 
2 | COc1c2c(cc3c1[C@H](CC(=O)c1cc4c(cc1C)C(C)(C)[C@@H](C)C4(C)C)[N+](C)(C)CC3)OCO2 [B] |  |  |  |  | 21.2 ± 1.44 | 37.5 ± 1.97 | 578 ± 84.3 | 4.02 ± 0.78
3 | CCCC[N+]1(CC#CC2(O)c3ccccc3-c3ccccc32)CCC(c2ccccc2)C1 (stereo not shown) [C] |  |  |  |  | 239 ± 2.95 | 92.1 ± 39.7 | 761 ± 128 | 0.75 ± 0.18
4 | C[N+]1(Cc2ccc(-c3nnc(-c4ccc([N+](=O)[O-])cc4)o3)cc2)CCc2[nH]c3ccccc3c2C1 (stereo not shown) [Compound D] |  |  |  |  | 2.31 ± 0.29 | 1.69 ± 0.46 | 5.39 ± 0.55 | 5.64 ± 2.47
5 | c1ccc(-c2c3c(cc4ccccc24)C[N+]2(CCCC2)C3)cc1 [Compound E] |  |  |  |  | 26.4 ± 5.3 | 512 ± 301 | 342 ± 54.6 | 12.7 ± 7.66
6 | C[N+]1(C)CCC2(CC1)Oc1ccccc1C1CC(c3ccc(-c4ccccc4)cc3)=NN12 (stereo not shown) [F] | 192 ± 29.8 | 151 ± 61.7 | 84.2 ± 6 | 32.9 ± 3.88 |  |  |  | 
7 | C[N+]1(C)CCC2(CC1)Oc1ccccc1C1CC(c3ccc4ccccc4c3)=NN12 (stereo not shown) [G] | 49.8 ± 15.3 | 70 ± 7.96 | 344 ± 50.7 | 9.51 ± 6.94 |  |  |  | 

Source: paper PMC4317581, “Virtual Screening of Acetylcholinesterase Inhibitors Using the Lipinski's Rule of Five and ZINC Databank” (BioMed Research International, 2015)
